Measured values from ChEMBL document CHEMBL1155651, “New prenylated anthraquinones and xanthones from Vismia guineensis” (2000).

What was measured:
Format in all cases: functional, PBL
[1] = Antimitotic activity in human peripheral blood lymphocytes assessed as mitotic index at 25 uM
[2] = Antimitotic activity in human peripheral blood lymphocytes assessed as mitotic index at 0.5 uM
[3] = Antimitotic activity in human peripheral blood lymphocytes assessed as mitotic index at 1 uM

Work on `COC(C)(C)CCC/C(C)=C/COc1cc(O)c2c(c1)Cc1cc(C)cc(O)c1C2=O` yielded an Activity [1] of 49.9%, an Activity [2] of 47.4% and an Activity [3] of 48.7%.

For `CN[C@H]1CCc2cc(OC)c(OC)c(OC)c2-c2ccc(OC)c(=O)cc21` [DEMECOLCINE], the Activity [3] was 70.1%.

With `C[C@]12CC[C@@H]3c4ccc(OC(=O)N(CCCl)CCCl)cc4CC[C@H]3[C@@H]1CC[C@@H]2O` [ESTRAMUSTINE] the Activity [3] was 78.7%.
